In patent US20250032575A1, “USE OF A MURAMYL PEPTIDE IN THE TREATMENT OF SKELETAL GROWTH RETARDATION” (UNIVERSITE CLAUDE BERNARD LYON 1, priority 2021, published 2025):

Assays:
Type in all cases: in vivo, mice
IGF-1 = assay: circulating IGF-1 level in serum, Mouse/Rat IGF-1 Quantikine ELISA; conditions: serum at day 56, oral, vs placebo
Description: Conventional C57B1/6j laboratory mice have been bred in the Gnotobiology Laboratory for more than 10 generations. Mice have been maintained in IVC cages (Tecniplast, Italy), exposed to 12:12 h light-dark cycles, supplied with tap water and fed ad libitum with sterile diet V1124-300 (Ssniff Spezialdiaten GmbH) (irradiated −25 kGy, Bioster, Czech Republic). The mice have been mated and after delivery, the litter size was reduced to 6 pups per mother. On day 21, male mice have been weaned on the experimental low-protein, low-fat diet (3.5 kcal/gram, protein: 4.1 wt %, carbohydrate: 78 wt %, fat: 2 wt %) and regularly monitored until 56 days after birth (adult age in mice). […]
At the end of the experiment, the blood has been collected and left to coagulate at room temperature for 2 hours. […] IGF-1 levels have been measured using the Mouse/Rat IGF-1 Quantikine ELISA kit (R&D systems) according to the manufacturer's instructions. Data have been analysed using the following statistical test: One way ANOVA with Tukey's multiple comparisons test.
Conventional C57B1/6j laboratory mice have been bred in the Gnotobiology Laboratory for more than 10 generations. […] On day 21, male mice have been weaned on the experimental low-protein, low-fat diet (3.5 kcal/gram, protein: 4.1 wt %, carbohydrate: 78 wt %, fat: 2 wt %) and monitored regularly for up to 56 days after birth. […]

[1] = test system: chronically undernourished mouse model; assay: body length (nose-anus) growth in chronically undernourished mouse model; conditions: for growth rate / relative growth (% length gain, day 21 = 100%) / total height: male mice on low-protein, low-fat diet, day 21 to 56, oral, 5 times a week, vs placebo; for skeletal growth (linear or longitudinal): summary of examples 1 and 2, oral administration, juvenile mice on protein-deficient diet mimicking chronic undernutrition
Description: (§1) Conventional C57B1/6j laboratory mice have been bred in the Gnotobiology Laboratory for more than 10 generations. Mice have been maintained in IVC cages (Tecniplast, Italy), exposed to 12:12 h light-dark cycles, supplied with tap water and fed ad libitum with sterile diet V1124-300 (Ssniff Spezialdiaten GmbH) (irradiated −25 kGy, Bioster, Czech Republic). The mice have been mated and after delivery, the litter size was reduced to 6 pups per mother. On day 21, male mice have been weaned on the experimental low-protein, low-fat diet (3.5 kcal/gram, protein: 4.1 wt %, carbohydrate: 78 wt %, fat: 2 wt %) and regularly monitored until 56 days after birth (adult age in mice). Mice weaned on the low-protein, low-fat diet have been treated 5 times a week with placebo, composition A containing MDP or composition B containing Murabutide. At the end of the experiment, food and bedding were removed at 8 am and the mice have been sacrificed after 5 hours of fasting by isoflurane inhalation and cervical dislocation. All animals have been sacrificed within one hour between 1 and 2 p.m.
(§2) The daily treatment dose was 30 μL placebo or for MDP 25 μg in 30 μL placebo and for murabutide 28 μg in 30 μL placebo. Each of the compositions has been administered by pipette to the mouse's tongue. The mouse has been maintained until the composition had been swallowed completely.
(§3) To measure body length, the mice have briefly been anaesthetised with isoflurane (Piramal Healthcare, UK). The anaesthetised mouse has been held by the tail and the nose-anus length has been measured using a ruler. Relative length has been calculated as % length gain, where body length at day 21 (weaning) has been set to 100%. The length growth rate has been calculated by dividing the absolute length gain from day 21 to day 56 by the number of days (i.e. 35). Femur and tibia bones have been dissected at sacrifice, fixed in 4% paraformaldehyde—PBS overnight at 4° C., washed with PBS and preserved in 70% ethanol. Bone length has been measured using a digital caliper (Festa).
Conventional C57B1/6j laboratory mice have been bred in the Gnotobiology Laboratory for more than 10 generations. Mice have been maintained in IVC cages (Tecniplast, Italy), exposed to 12:12 h light-dark cycles, supplied with tap water and fed ad libitum with sterile diet V1124-300 (Ssniff Spezialdiäten GmbH) (irradiated −25 kGy, Bioster, Czech Republic). The mice have been mated and after delivery the litter size was reduced to 6 pups per mother. On day 21, male mice have been weaned on the experimental low-protein, low-fat diet (3.5 kcal/gram, protein: 4.1 wt %, carbohydrate: 78 wt %, fat: 2 wt %) and monitored regularly for up to 56 days after birth. Mice weaned on the low-protein, low-fat diet have been treated 5 times a week with either the placebo composition or the composition comprising mifamurtide as prepared in point 1.1 above. At the end of the experiment, the food and bedding were removed at 8 a.m. and the mice have been sacrificed after 5 hours of fasting by isoflurane inhalation and cervical dislocation. All animals have been sacrificed within one hour between 1 and 2 p.m.
Each of the compositions has been administered by pipette to the tongue of the mouse. The mouse has been held until the composition had been swallowed completely.
The tests were carried out on male mice with each of the above compositions P, A, AB and B, according to the protocol indicated in example 1, point 1.1 above (56-day period).
The daily treatment dose was 30 μL of composition P (Placebo) or 25 μg MDP alone in 30 μL of placebo (composition A), or 25 μg MDP and 2.10^8 CFU of Lactiplantibacillus plantarum strain WJL bacteria in 30 μL of placebo (composition AB) or 2.10^8 CFU of Lactiplantibacillus plantarum strain WJL bacteria in 30 μL of placebo (composition B). […]

[2] = test system: chronically undernourished mouse model; assay: femur and tibia bone length in chronically undernourished mouse model; conditions: at sacrifice day 56, oral, vs placebo
Description: as §1, §2, §3
Conventional C57B1/6j laboratory mice have been bred in the Gnotobiology Laboratory for more than 10 generations. Mice have been maintained in IVC cages (Tecniplast, Italy), exposed to 12:12 h light-dark cycles, supplied with tap water and fed ad libitum with sterile diet V1124-300 (Ssniff Spezialdiäten GmbH) (irradiated −25 kGy, Bioster, Czech Republic). The mice have been mated and after delivery the litter size was reduced to 6 pups per mother. On day 21, male mice have been weaned on the experimental low-protein, low-fat diet (3.5 kcal/gram, protein: 4.1 wt %, carbohydrate: 78 wt %, fat: 2 wt %) and monitored regularly for up to 56 days after birth. […]

[3] = Example 1, 5 times a week, MDP 25 μg or murabutide 28 μg in 30 μL
[4] = Example 1, MDP 25 μg or murabutide 28 μg in 30 μL
[5] = Example 2, Mifamurtide 62.5 μg/day in 30 μL

CCCCOC(=O)[C@@H](CCC(N)=O)NC(=O)[C@H](C)NC(=O)[C@@H](C)O[C@H]1[C@H](O)[C@@H](CO)OC(O)[C@@H]1NC(C)=O (some centres unmarked) [murabutide, muramyl dipeptide butyl ester]
circulating IGF1 level (IGF-1; [3]): significantly increased
growth rate [1, 4]: significantly increased
relative growth (% length gain, day 21 = 100%) [1, 4]: significantly increased
total height [1, 4]: significantly increased
skeletal growth (linear or longitudinal) [1]: positive effect
femur size [2, 3]: positive trend in murabutide treatment that did not reach statistical significance
length of the tibia [2, 3]: positive trend of increased growth

muramyl tripeptide phosphatidyl ethanolamine [Mifamurtide]
circulating IGF1 level (IGF-1; [5]): significantly increased
growth rate [1, 5]: significantly increased
relative growth (% length gain, day 21 = 100%) [1, 5]: significantly increased
total height [1, 5]: significantly increased
skeletal growth (linear or longitudinal) [1]: positive effect
size of the femur [2, 5]: significantly increased
size of the tibia [2, 5]: significantly increased
